Tests used:
in vivo = settings: male, C57BL/6, mouse, plasma, po, 10 mg/kg
L6 rat myoblasts = test: OCR Seahorse assay (oxygen consumption rate, mitochondrial uncoupling); settings: for EC50 / Emax at 200 µM: Rattus norvegicus; for EC50: L6; for Emax at 200 µM: L6, read-out: % of BAM15 OCR, L6 myoblasts, integrated area under OCR dose curve above baseline relative to BAM15 of same experiment, NA = No Activity, highest tested concentration 200 μM; for uncoupling (OCR) activity in words: L6 myoblasts
Description: With 7 and 9 derivatives in hand, we screened for mitochondrial uncoupling activity as a function of oxygen consumption rate (OCR). […] OCR was measured using an Agilent Seahorse XF24 or XFe96 Analyzer (Agilent Technologies, Santa Clara, CA). L6 myoblasts were seeded in a Seahorse 24 or 96-well tissue culture plate at a density of 3.5 × 10^4 cells/well. The cells were then allowed to adhere overnight. […] Compounds were injected during the assay, and OCR was measured using 2 min measurement periods. Cells were treated with a single drug concentration per well and measured over a 90 min period. Two wells were used per condition and, where applicable, results from multiple plates were averaged together. The first three measurements after injection for each concentration were averaged to produce a dose curve. […] AUC values were also calculated using the same software.

L6 myoblast cells = test: Mitochondrial stress test and self-limiting test (OCR); settings: L6 myoblasts
GAN mouse model of MASH = test: Gubra-Amylin NASH (GAN) diet mouse model of MASH; type: in vivo
[1] = design: method as in PMID 38629387; settings: STEP-1 clinical trials; cited from earlier work
[2] = 200 mg kg^–1 in GAN diet, 4 weeks

Row | Cmax at 24 h (in vivo) [µM] | half-life at 24 h (in vivo) [h] | Molecule | EC50 (L6 rat myoblasts) [nM] | Emax at 200 µM (L6 rat myoblasts) [%] | further results
1 | 4 | 0.9 ± 0.34 | Oc1c(Nc2ccc(-c3cccc(F)c3)cc2)cnc2nonc12 [7al, 6-((3′-Fluoro-[1,1′-biphenyl]-4-yl)amino)-[1,2,5]oxadiazolo[3,4-b]pyridin-7-ol] | 1200 ± 100 | 36 | –
2 | 6 | 0.9 ± 0.07 | Oc1c(Nc2ccc(-c3ccc(F)cc3)cc2)cnc2nonc12 [7ao, 6-((4′-Fluoro-[1,1′-biphenyl]-4-yl)amino)-[1,2,5]oxadiazolo[3,4-b]pyridin-7-ol] | 1700 ± 200 | < 50 | –
3 | 4 | 1.8 ± 0.25 | Oc1c(Nc2ccc(-c3ccc(Cl)cc3)cc2)cnc2nonc12 [7ap, 6-((4′-Chloro-[1,1′-biphenyl]-4-yl)amino)-[1,2,5]oxadiazolo[3,4-b]pyridin-7-ol] | 900 ± 100 | < 50 | –
4 | – | – | Oc1c(-c2cccs2)cnc2nonc12 [9g, 6-(Thiophen-2-yl)-[1,2,5]oxadiazolo[3,4-b]pyridin-7-ol] | 40000 ± 300 | 36 | uncoupling (OCR) activity in words (L6 rat myoblasts): poor activity
5 | – | – | Oc1c(-c2ccc(-c3ccc(F)cc3)cc2)cnc2nonc12 [9h, 6-(4′-Fluoro-[1,1′-biphenyl]-4-yl)-[1,2,5]oxadiazolo[3,4-b]pyridin-7-ol] | – | – | uncoupling (OCR) activity in words (L6 rat myoblasts): inactive
6 | – | – | semaglutide | – | – | loss of lean mass [1]: up to 40%

Row | Molecule | Cmax at 24 h (in vivo) [µM] | half-life at 24 h (in vivo) [h] | EC50 (L6 rat myoblasts) [nM] | Emax at 200 µM (L6 rat myoblasts) [%] | further results
7 | Oc1c(Nc2ccc(-c3cccc(Cl)c3)cc2)cnc2nonc12 [SHO1122147, 6-((3′-Chloro-[1,1′-biphenyl]-4-yl)amino)-[1,2,5]oxadiazolo[3,4-b]pyridin-7-ol] | 35 | 2 ± 0.07 | 3600 ± 100 | 55 | respiration (OCR) in self-limiting test (L6 myoblast cells; SHO1122147 10 μM, BAM15 1.1 μM): 200%; OCR after blockade with oligomycin (L6 myoblast cells; oligomycin 1 μM, then SHO1122147 10 μM or BAM15 1.1 μM at t = 40 min): increased OCR; loss of body weight (GAN mouse model of MASH; 200 mg kg^–1 admixed in GAN diet, 4 weeks): 15.4%; fat mass as percent of body weight (EchoMRI) (GAN mouse model of MASH; [2]): lowering fat mass; fat-free lean mass as percent of body weight (EchoMRI) (GAN mouse model of MASH; [2]): increasing fat-free lean mass; liver mass (GAN mouse model of MASH; [2]): no significant change; liver triglycerides (GAN mouse model of MASH; [2]): decreased; plasma alanine aminotransferase (ALT) (GAN mouse model of MASH; [2]): decreased; fibrosis stage (GAN mouse model of MASH; 200 mg kg^–1 in GAN diet, 4 weeks, compared to GAN controls): No changes; MAFLD activity score (GAN mouse model of MASH; 200 mg kg^–1 in GAN diet, 4 weeks, primarily due to decreased hepatic steatosis): significant decrease; caloric intake (GAN mouse model of MASH; 200 mg kg^–1 in GAN diet, food intake monitored daily): no significant changes; body temperature (GAN mouse model of MASH; 200 mg kg^–1 day^–1): without changes in body temperature
